In paper PMC6321484, “Deep Eutectic Solvent-Based Ultrahigh Pressure Extraction of Baicalin from Scutellaria baicalensis Georgi” (Molecules, 2018):
In brackets after ≈: the same amount, converted by molar mass.

Test: Equilibrium solubility of baicalin in different solvents (excess compound, HPLC)
Type: physicochemical
Details: for Solubility of Baicalin: excess compound stirred at 40 °C for 2 h, HPLC
Description: Solubility tests were carried out using distilled water, 70% ethanol and DESs with an excess of the tested compound in a capped bottle and stirred at 40 °C for 2 h. The resulting mixture containing undissolved solid compounds were centrifuged. The supernatant was transferred to a 5 mL-microtube, diluted with methanol and vortexed to a homogeneous solution. The concentration of baicalin in the solution was monitored by HPLC. All solubility tests were performed in triplicate.

For O=C(O)[C@H]1O[C@@H](Oc2cc3oc(-c4ccccc4)cc(=O)c3c(O)c2O)[C@H](O)[C@@H](O)[C@@H]1O [baicalin], the solubility thermodynamic at 2 h (40 °C, organic solvent or mixture, thermodynamic from solid, solvent: DES-1, room temperature) was 22.7 mg/mL (≈ 50.9 mM), the “Solubility of Baicalin” value (solvent: 70% Ethanol) was 1.85 mg/g and the “Solubility of Baicalin” value (solvent: DES-1 (ChCl-lactic acid 1:1)) was 22.7 mg/g. For the same molecule, the “Solubility of Baicalin” value (solvent: DES-2 (ChCl-glucose 1:1)) was 18.2 mg/g, the “Solubility of Baicalin” value (solvent: DES-3 (ChCl-glycerol 1:1)) was 12.35 mg/g and the “Solubility of Baicalin” value (solvent: DES-4 (ChCl-1,4-butanediol 1:1)) was 2.25 mg/g. For the same molecule, the “Solubility of Baicalin” value (solvent: DES-5 (ChCl-ethylene glycol 1:1)) was 17.8 mg/g and the “Solubility of Baicalin” value (solvent: Water) was 0.18 mg/g.
